Entries after “also recorded” stand apart in the source; their conditions may differ.
How the values were obtained:
[1] = up to a 20 mg/kg systemic dose (Kalia; Mohanti et al.); cited from earlier work
[2] = tested on: rat mammary cancer 13762F tumor cells; assay: In vivo tumor growth after intratumoral injection of radiopharmaceuticals (rat mammary cancer model); set-up: species or system Fischer 344 female rats; conditions: for tumor growth / tumor development: 0.6 mCi intratumoral on day 10 in 0.1-0.2 ml saline (pH 4.5-6), FIG. 2
Description: The radionuclides YCl3, ^111In—Cl, and ^201Tl—Cl were obtained from a local supplier of radioisotopes, Iso-Tex Diagnostics (Friendswood, Tex.). YCl3 obtained from the supplier was in an acidic preparation with a pH of 2-3, and was subsequently diluted in saline to a final pH of about 4-6 before injection. Initial activities of ^111In—Cl and YCl3 were about 200-500 mCi/ml, and dilution were made with preservative-free saline. YIMA was prepared by co-precipitation, as set forth in U.S. Ser. No. 10/724,027. Briefly, 500 μl of FeCl3 (1 mg Fe/ml) was added to 30 μl of ^90Y chloride (20-40 μCi/30 μl), and either 30 μl of NaOH (1.0 N) or 10 μl of NH4OH (20.0%) was added to the solution to reach a pH of about 7.0 to 9.0. Co-precipitated YIMA radiopharmaceutical macroaggregates were then separated from remaining soluble radionuclides by centrifuging the reactions from 1500 RPM to 3000 RPM×5 minutes, and filtered using a Millipore Nylone (size: 0.45 μm, diameter: 13 mm) to isolate the radiopharmaceutical macroaggregates.
The rat model of in vivo tumor growth was generated as follows. On day zero, 100,000 rat mammary cancer 13762F tumor cells were implanted in a volume of 0.15 ml into the right thigh muscle of Fischer 344 female rats weighing approximately 160 grams. […] YIMA was injected in a volume of 0.2 ml on days 3-7 after tumor implantation. Tumor sizes and body weights of the rats were monitored regularly (5 times a week) for several weeks, or until the tumors grew beyond 2.5 cm, at which time the rats were euthanized.

rat breast cancer = conditions: systemic injection (Mortimer and Taylor; Moadel et al.); cited from earlier work
[3] = In vivo local sequestration at the injection site by serial scintigrams (intramuscular or intratumoral injection); set-up: species or system Fischer rats; conditions: for retention time with free iron / effect of free iron in the injectate on retention / local sequestration: admixture with FeCl3.6H2O; for retention time with free iron: intramuscular or intratumoral injection; for effect of free iron in the injectate on retention / local sequestration: 1 mg Fe in total injectate; for clearance after intramuscular injection: thigh muscle, after only 3 hours, negative control
Description: To further study the localization of unsealed radiopharmaceuticals after injection, in vivo imaging studies were carried out comparing ^111In DTPA (In-DTPA) (negative control) and Indium-111-Iron Macroaggregate (^111In-IMA) (positive control) to ^111In—Cl. ^111In emits gamma rays that can be detected using a gamma camera. ^111In-IMA was generated according to methods disclosed in U.S. Ser. No. 10/724,027, incorporated herein by reference. Each radiopharmaceutical was administered by intramuscular injection into the thigh muscle of Fischer rats which weighed approximately 200 grams. Two different doses of ^111In—Cl were administered to the rats, 0.4 and 0.8 mCi in 0.2 ml saline. Distribution of the ^111In—Cl was determined through serial scintigrams. […] In comparison, when ^111In-IMA was administered to rats, consistent retention (84%) of the ^111In-IMA was found 70 hours after administration (FIG. 8). Persistent intramuscular localization of ^111In—Cl was also found in rats for both dose levels of ^111In—Cl, with over 50% of the injected ^111In—Cl remaining in the injection site after three days.
To investigate whether the addition of free iron to radionuclides would increase the locoregional retention of various radionuclides, admixtures of ^67Ga-citrate, YCl3, or ^111In—Cl, were prepared with FeCl3.6H2O at 1-5 mg Fe/ml. Each radionuclide combination/admixture was administered either by intramuscular (IM) injection into the thigh muscle of the left leg (0.1-1.0 mCi) or by intratumoral (IT) injection into a tumor in the right leg (0.4-5.0 mCi) of Fischer rats. Distribution of the radionuclide was determined through serial scintigrams. Whole body images were acquired with a Siemens M-CAM camera using respective photo peaks of Ga-67, Tl-201 (for Y-90), or In-111, and 15-20% windows in photo energy. The typical imaging time was 0.5 to 5 minutes. A respective standard was present in the field of view (0.1-0.5 mCi), and used for image quantification by comparing images with the standard and normalizing the initial injection time as 100%. The Fe content in each combination/admixture was 1 mg in the total injectate.

[4] = intravenous; four days after injection (Kutzner et al.); cited from earlier work
[5] = cited from earlier work
CSF proteins = assay: Binding to CSF proteins (Centrifree filter separation); type: in vitro ADME, human (patients); conditions: 0.2, 0.5 or 1 μCi added to diluted CSF, 20 minutes; physiologic range, all concentrations tested
Description: To test the hypothesis that local sequestration of ^111In—Cl is due to protein binding, both ^111In—Cl and YCl3 were tested for binding to CSF and serum proteins. Serum proteins were obtained from residual baseline serum and CSF proteins were obtained from patients participating in other research protocols who had consented to blood sampling. To determine the level of ^111In—Cl protein binding, 0.2, 0.5, or 1 μCi of ^111In—Cl was added to diluted CSF (0.125 or 0.5) or diluted serum protein (0.125 and 0.25) and incubated for 20 minutes. To determine the level of YCl3 protein binding, 0.2, 0.5, or 1 μCi of YCl3 was added to diluted CSF (0.063 or 0.5) or diluted serum protein (0.063 and 0.375), and incubated for 20 minutes. After incubation, free radiopharmaceuticals were separated from protein bound ^111In—Cl or YCl3 using Amicon Centrifree Micropartition filters in a single centrifugation step at 3000 g for 15 minutes according to manufacturer's instructions (Amicon, Beverly, Mass.). The percent binding of YCl3 or ^111In—Cl to the CSF or serum protein was then calculated. As shown in FIG. 6 and FIG. 7 respectively, both YCl3 and ^111In—Cl bind avidly to CSF and serum protein within the physiologic range (a dilution factor between 0.2 and 0.6) at all concentrations tested. At room temperature, both YCl3 and ^111In—Cl have greater than 95% binding to serum proteins.

serum proteins = assay: Binding to serum proteins (Centrifree filter separation); type: in vitro ADME, human (patients); conditions: 0.2, 0.5 or 1 μCi added to diluted serum protein, 20 minutes; physiologic range, all concentrations tested
Description: To test the hypothesis that local sequestration of ^111In—Cl is due to protein binding, both ^111In—Cl and YCl3 were tested for binding to CSF and serum proteins. Serum proteins were obtained from residual baseline serum and CSF proteins were obtained from patients participating in other research protocols who had consented to blood sampling. To determine the level of ^111In—Cl protein binding, 0.2, 0.5, or 1 μCi of ^111In—Cl was added to diluted CSF (0.125 or 0.5) or diluted serum protein (0.125 and 0.25) and incubated for 20 minutes. To determine the level of YCl3 protein binding, 0.2, 0.5, or 1 μCi of YCl3 was added to diluted CSF (0.063 or 0.5) or diluted serum protein (0.063 and 0.375), and incubated for 20 minutes. After incubation, free radiopharmaceuticals were separated from protein bound ^111In—Cl or YCl3 using Amicon Centrifree Micropartition filters in a single centrifugation step at 3000 g for 15 minutes according to manufacturer's instructions (Amicon, Beverly, Mass.). The percent binding of YCl3 or ^111In—Cl to the CSF or serum protein was then calculated. As shown in FIG. 6 and FIG. 7 respectively, both YCl3 and ^111In—Cl bind avidly to CSF and serum protein within the physiologic range (a dilution factor between 0.2 and 0.6) at all concentrations tested. At room temperature, both YCl3 and ^111In—Cl have greater than 95% binding to serum proteins. […]

[6] = Biodistribution and projected human radiation dosimetry after intravenous or intramuscular injection; type: in vivo, female Fisher rats; conditions: for human dosimetry estimate, kidney / human dosimetry estimate, red marrow: from rat biodistribution
Description: To evaluate the radiation toxicity of YCl3 after intravenous or intramuscular injection, parallel experiments were performed to evaluate the biodistribution and projected human radiation dosimetry of both ^111In—Cl and YCl3. The experiments used three female Fisher rats (140-160 grams) for each set of injections. Each rat was injected intravenously, or was injected intramuscularly in the right thigh, with 0.05 mCi of YCl3 or ^111In—Cl (with no carrier added) in 0.1 ml saline (pH 5-6). The effect of initial exposure of the radiopharmaceuticals to interstitial fluid was estimated by serum protein binding experiments using Millipore Centrifree filters as set forth in Example 2. Organs including the right and left femur, as well as the right and left thigh muscles, were harvested from each rat 7 days after injection. Human dosimetry for each radiopharmaceutical was constructed using established anthropomorphic models.

human cancer cell lines = conditions: a number of human cancer cell lines; cited from earlier work
[7] = FIG. 4, in 0.5 ml saline, YCl3 0.5, 1.0, 2.0 mCi, ^111In—Cl 1.0, 4.0 mCi, FDG 1.0, 2.0, 3.0 mCi, ^67Ga—Fe 1.77 mCi

O=CC[C@@H](O)[C@H](O)[C@H](O)CO [2DG, 2-deoxy-D-glucose]
enhancement of the effects of a radiopharmaceutical [1]: effective in enhancing the effects of a radiopharmaceutical

OC[C@H]1OC(O)[C@H]([18F])[C@@H](O)[C@@H]1O (stereo partly drawn) [FDG, F-18-2-deoxy-2-fluoro-D-glucose, reference compound]
tumor growth [2, 7]: YCl3 appeared to be the only radiopharmaceutical that significantly suppressed tumor growth
induction of apoptosis (rat breast cancer): sufficient to induce apoptosis

O=C([O-])CC(O)(CC(=O)[O-])C(=O)[O-].[67Ga+3] [^67Ga citrate, Gallium 67 citrate, reference compound]
retention time with free iron [3]: Increase in the retention time
retention in the injection site ([3]; intramuscular injection, without free iron): comparatively short time

[Cl][Ga]([Cl])[Cl] [^67Ga—Cl, Gallium 67 chloride]
retention time with free iron [3]: Increase in the retention time

[90Y] [^90Y, Yttrium-90]
injected amount present in the bones [4]: 50%-80%
radiation toxicity in red bone marrow ([5]; by ICRP-30): 15-18 cGy/mCi
red marrow dose ([5]; derived from distribution of Yttrium-86 citrate in human PET studies (Herzog et al.)): 4-6 cGy/mCi

[Cl][111In]([Cl])[Cl] [^111In—Cl, Indium-111 chloride]
tumor growth / tumor development [2]: not suppressed; also recorded: not reduced; also recorded: did not suppress tumor development
tumor growth ([2]; FIG. 3, in 0.2-0.3 ml saline, YCl3 0.3, 0.6, 1.5 mCi, ^111In—Cl 0.6, 1.2, 2.4, 4.8 mCi, ^67Ga 0.6 mCi): YCl3 appeared to be the only radiopharmaceutical that significantly suppressed tumor growth
tumor growth [2, 7]: YCl3 appeared to be the only radiopharmaceutical that significantly suppressed tumor growth
tumor growth ([2]; FIG. 5, in 1.0 ml saline, ^111In—Cl 2.2 mCi, ^188Re EDTA 1.5 mCi with or without free iron): strong tumor suppression
change in tumor suppression with injection volume ([2]; injection volume increased from 0.2-0.3 ml and 0.5 ml to 1.0 ml, therapeutic dosage not increased): dramatic increase in tumor suppression
binding to CSF (CSF proteins): bind avidly
binding to serum protein (serum proteins): bind avidly
retention time with free iron [3]: Increase in the retention time
effect of free iron in the injectate on retention / local sequestration ([3]; intramuscular injection): does not appear to dramatically affect
injected radiopharmaceutical remaining in the injection site ([3]; intramuscular, 0.4 and 0.8 mCi in 0.2 ml saline (both dose levels), after three days): over 50%
effect of pH of the injectate on local sequestration ([3]; intramuscular, acidic solution (pH 3.0) vs basic solution (pH 8.0), FIG. 9): does not appear to dramatically affect
effect of free iron in the injectate on retention / local sequestration ([3]; intratumoral injection): does appear to increase
skeletal distribution ([6]; estimated from the left femur (opposite to the injection site)): about 16%
radiation uptake in the right thigh muscle ([6]; intramuscular injection in right thigh): high
radiation uptake in right femur versus contralateral organ ([6]; intramuscular injection in right thigh, decreasing over time to): 3 times higher
radiation uptake in right femur versus contralateral organ ([6]; intramuscular injection in right thigh, initial): 6 times higher
human dosimetry estimate, kidney ([6]; intramuscular): 1.13 cGy/mCi
human dosimetry estimate, red marrow ([6]; intramuscular): 0.55 cGy/mCi
organs with the highest uptake ([6]; intravenous injection, 0.05 mCi in 0.1 ml saline): spleen, liver, and kidney
human dosimetry estimate, kidney ([6]; intravenous): 10.4 cGy/mCi
human dosimetry estimate, red marrow ([6]; intravenous): 4.01 cGy/mCi

[O]=[188Re](=[O])(=[O])[O-] [^188Re perrhenate, reference compound]
clearance from the injection site ([3]; intratumoral injection, without free iron, FIG. 16): rapidly cleared
effect of free iron in the injectate on retention / local sequestration ([3]; intratumoral injection): did not slow down the clearance

[Cl][201Tl] [^201Tl—Cl, Thallium-201 chloride, reference compound]
tumor growth / tumor development [2]: not reduced
effect of free iron in the injectate on retention / local sequestration ([3]; intratumoral injection): did not dramatically slow down clearance

Rhodamine-123 [Rh-123]
toxicity to cancer cell lines (human cancer cell lines): selectively toxic

^111In DTPA [^111In-DTPA, reference compound]
clearance after intramuscular injection ([3]; intramuscular): rapidly cleared
clearance after intramuscular injection ([3]; intramuscular, listed as In-DTPA): rapid clearance

From patent US8329141B2, “Locoregional internal radionuclide ablation of abnormal tissues” (Board of Regents, The University of Texas System, priority 2004, dated 2012)
